# According to patent US20250171431A1, “HETEROCYCLIC INHIBITORS OF IGF-1R FOR TREATMENT OF DISEASE” (HORIZON THERAPEUTICS IRELAND DAC, priority 2023, published 2025):
# Experiments:
# IGF-1R [1] = biological target: T1, IGF-1R (Homo sapiens (Human), UniProt P08069); test: Example B-2: IGF-1R Assay (PathHunter cell lines, EC80 agonist challenge); assay type: cell-based; details: read-out: IC50 (Biological Activity against IGF-1R)
# Description: PathHunter cell lines were expanded from freezer stocks according to standard procedures. Cells were seeded in a total volume of 20 μL into white walled, 384-well microplates and incubated for the appropriate time prior to testing.
# Cells are pre-incubated with compound followed by EC80 agonist challenge as follows: • 1. Intermediate dilution of sample stocks was performed to generate 5× sample in assay buffer. • 2. 5 μL of 5× sample was added to cells and incubated at 37° C. for 60 minutes. Vehicle concentration was 1%. • 3. 5 μL of 6×EC80 agonist in assay buffer was added to the cells and incubated at room temperature for 3 hours.
# Assay signal was generated through a single addition of 12.5 or 15 μL (50% v/v) of PathHunter Detection reagent cocktail for agonist and antagonist assays respectively, followed by a one hour incubation at room temperature. Microplates were read following signal generation with a PerkinElmer Envision™ instrument for chemilumine-scent signal detection.
# Compound activity was analyzed using CBIS data analysis suite (ChemInnovation, CA). Percentage inhibition was calculated using the following formula: % Inhibition=100%×(1−(mean RLU of test sample−mean RLU of vehicle control)/(mean RLU of EC80 control−mean RLU of vehicle control)). The activity for representative examples of the invention is shown in the following table, wherein A: IC50≤500 nM; B: 500 nM<IC50≤2 μM; C: […]≤10 μM; D: IC50>[…].
# Target sequence in this assay (P08069 31-1367, species assumed): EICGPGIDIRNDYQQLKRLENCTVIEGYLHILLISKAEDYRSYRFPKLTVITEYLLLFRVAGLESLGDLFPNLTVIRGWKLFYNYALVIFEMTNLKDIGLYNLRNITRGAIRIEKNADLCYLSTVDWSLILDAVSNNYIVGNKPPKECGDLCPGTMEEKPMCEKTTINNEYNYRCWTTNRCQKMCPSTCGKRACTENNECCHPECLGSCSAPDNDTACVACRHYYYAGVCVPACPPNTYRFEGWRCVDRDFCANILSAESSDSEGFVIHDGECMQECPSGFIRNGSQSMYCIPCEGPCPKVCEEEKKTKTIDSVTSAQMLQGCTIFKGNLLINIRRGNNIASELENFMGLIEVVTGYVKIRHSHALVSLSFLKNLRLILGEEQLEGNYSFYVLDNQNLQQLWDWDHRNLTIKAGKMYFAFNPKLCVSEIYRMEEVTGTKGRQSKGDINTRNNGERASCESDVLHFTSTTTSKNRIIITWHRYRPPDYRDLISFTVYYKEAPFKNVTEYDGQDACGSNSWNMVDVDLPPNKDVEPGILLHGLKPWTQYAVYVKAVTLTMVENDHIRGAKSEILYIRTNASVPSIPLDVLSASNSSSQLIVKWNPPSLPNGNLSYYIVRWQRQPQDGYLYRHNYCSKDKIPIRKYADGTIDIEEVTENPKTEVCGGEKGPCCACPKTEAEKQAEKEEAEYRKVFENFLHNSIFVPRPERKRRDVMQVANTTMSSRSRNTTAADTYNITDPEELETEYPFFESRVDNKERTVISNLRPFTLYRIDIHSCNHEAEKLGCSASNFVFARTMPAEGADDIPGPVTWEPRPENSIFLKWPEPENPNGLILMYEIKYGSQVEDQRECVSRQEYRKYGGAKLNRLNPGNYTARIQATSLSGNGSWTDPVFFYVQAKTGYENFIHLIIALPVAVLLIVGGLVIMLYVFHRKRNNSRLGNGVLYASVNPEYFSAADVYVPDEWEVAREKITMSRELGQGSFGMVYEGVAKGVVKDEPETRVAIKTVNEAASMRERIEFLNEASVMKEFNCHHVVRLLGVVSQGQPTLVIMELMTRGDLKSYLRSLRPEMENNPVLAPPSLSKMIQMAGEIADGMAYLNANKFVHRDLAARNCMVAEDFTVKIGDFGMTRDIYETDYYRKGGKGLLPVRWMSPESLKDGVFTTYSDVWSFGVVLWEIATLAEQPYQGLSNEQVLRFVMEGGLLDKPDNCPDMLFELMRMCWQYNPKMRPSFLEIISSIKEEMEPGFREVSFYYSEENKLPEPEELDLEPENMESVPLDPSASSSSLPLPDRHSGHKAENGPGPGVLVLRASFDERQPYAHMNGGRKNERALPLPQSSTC
# IGF-1R [2] = biological target: T1, IGF-1R; test: Example B-1: IGF-1R Assay (PC3 cells, IGF1 stimulation, AlphaLISA); assay type: cell-based; details: 200 ng/mL IGF1 stimulation, read-out: Biological Activity against IGF-1R IC50
# How it was run: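 Readout is AlphaLISA signal from lysed PC3 cells, expressed as % inhibition versus vehicle and EC80 controls and banded by IC50. Before lysis, the cells were starved of serum for 2 h, exposed to 3× serially diluted compound for 2 h, and stimulated for 30 min with 200 ng/mL IGF1 (final).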
# Target sequence in this assay (P08069 31-1367): as the sequence (P08069 31-1367, species assumed) above
IC50 (IGF-1R [1]) [nM],IC50 (IGF-1R [2]) [nM],SMILES
500 to 2000,500 to 2000,"CN1CCOc2ccc(Nc3nccc(Nc4cnc5cc(F)c(F)cc5c4)n3)cc21 [Compound 150, N4-(6,7-difluoroquinolin-3-yl)-N2-(4-methyl-3,4-dihydro-2H-benzo[b][1,4]oxazin-6-yl)pyrimidine-2,4-diamine]"
≤ 500,≤ 500,"CN(C)CC(=O)N1CCc2ncc(Nc3nccc(Nc4cnc5ccccc5c4)n3)cc21 [Compound 137, 2-(dimethylamino)-1-(6-((4-(quinolin-3-ylamino)pyrimidin-2-yl)amino)-2,3-dihydro-1H-pyrrolo[3,2-b]pyridin-1-yl)ethan-1-one]"
≤ 500,≤ 500,"CN(C)CC1COc2cc(Nc3nccc(Nc4cnc5ccccc5c4)n3)ccc2O1 (centres unmarked) [Compound 135, N2-(2-((dimethylamino)methyl)-2,3-dihydrobenzo[b][1,4]dioxin-6-yl)-N4-(quinolin-3-yl)pyrimidine-2,4-diamine]"
≤ 500,≤ 500,"CN(C)CC1COc2cc(Nc3nccc(Nc4cc5ccccc5nc4C(N)=O)n3)ccc2O1 (centres unmarked) [Compound 171, 3-((2-((2-((dimethylamino)methyl)-2,3-dihydrobenzo[b][1,4]dioxin-6-yl)amino)pyrimidin-4-yl)amino)quinoline-2-carboxamide]"
≤ 500,≤ 500,"CN(C)CC(=O)N1CCc2ccc(Nc3nccc(Nc4cnc5ccc(Cl)cc5c4)n3)cc21 [Compound 129, 1-(6-((4-((6-chloroquinolin-3-yl)amino)pyrimidin-2-yl)amino)indolin-1-yl)-2-(dimethylamino)ethan-1-one]"
≤ 500,≤ 500,"CN(C)CC1COc2cc(Nc3nccc(Nc4cnc5cc(F)c(F)cc5c4)n3)ccc2O1 (centres unmarked) [Compound 169, 4-(6,7-difluoro-3-quinolylamino)-2-{2-[(dimethylamino)methyl]-2,3-dihydro-1,4-benzodioxin-6-ylamino}pyrimidine]"
500 to 2000,≤ 500,"COc1cc(N2CCNC3(CC3)C2)ncc1Nc1nccc(Nc2cnc3ccc(Cl)cc3c2)n1 [Compound 496, 4-(6-chloro-3-quinolylamino)-2-{6-(4,7-diaza-7-spiro[2.5]octyl)-4-methoxy-3-pyridylamino}pyrimidine]"
≤ 500,≤ 500,"COc1cc(C2CCOCC2)ncc1Nc1nccc(Nc2cc3cccc(F)c3[nH]c2=O)n1 [Compound 214, 8-fluoro-3-{2-[4-methoxy-6-(tetrahydro-2H-pyran-4-yl)-3-pyridylamino]-4-pyrimidinylamino}-1,2-dihydro-2-quinolinone]"
≤ 500,≤ 500,"c1ccc2ncc(Nc3ccnc(Nc4ccc5c(c4)OCCO5)n3)cc2c1 [Compound 505, 2-(2,3-dihydro-1,4-benzodioxin-6-ylamino)-4-(3-quinolylamino)pyrimidine]"
≤ 500,≤ 500,"COc1cc(C2CCN(CC#N)CC2)ccc1Nc1nccc(Nc2cc3cccc(F)c3[nH]c2=O)n1 [Compound 213, (4-{4-[4-(8-fluoro-2-oxo-1,2-dihydro-3-quinolylamino)-2-pyrimidinylamino]-3-methoxyphenyl}-1-piperidyl)acetonitrile]"
≤ 500,≤ 500,"CN(C)CC(=O)N1CCOc2cc(Nc3nccc(Nc4cnc5cc(F)c(F)cc5c4)n3)ccc21 [Compound 152, 1-(7-((4-((6,7-difluoroquinolin-3-yl)amino)pyrimidin-2-yl)amino)-2,3-dihydro-4H-benzo[b][1.4]oxazin-4-yl)-2-(dimethylamino)ethan-1-one]"
500 to 2000,≤ 500,"COc1nc(C2CCOCC2)ccc1Nc1nccc(Nc2cc3cccc(F)c3[nH]c2=O)n1 [Compound 224, 8-fluoro-3-{2-[2-methoxy-6-(tetrahydro-2H-pyran-4-yl)-3-pyridylamino]-4-pyrimidinylamino}-1,2-dihydro-2-quinolinone]"
> 10000,≤ 500,"COc1cc(Nc2nccc(Nc3cc4cccc(F)c4[nH]c3=O)n2)ccc1C1CCOCC1 [Compound 219, 8-fluoro-3-{2-[3-methoxy-4-(tetrahydro-2H-pyran-4-yl)phenylamino]-4-pyrimidinylamino}-1,2-dihydro-2-quinolinone]"
≤ 500,≤ 500,"CN(C)CC1COc2cc(Nc3nccc(Nc4cnc5ccc(C(F)F)cc5c4)n3)ccc2O1 (centres unmarked) [Compound 497, 4-[6-(difluoromethyl)-3-quinolylamino]-2-{2-[(dimethylamino)methyl]-2,3-dihydro-1,4-benzodioxin-6-ylamino}pyrimidine]"
≤ 500,≤ 500,"c1ccc2ncc(Nc3ccnc(Nc4ccc5ccn(CC6CCCC6)c5c4)n3)cc2c1 [Compound 502, 2-[1-(cyclopentylmethyl)-6-indolylamino]-4-(3-quinolylamino)pyrimidine]"
≤ 500,≤ 500,"CN(C)CC1COc2cc(Nc3nccc(Nc4cnc5ccccc5c4)n3)cnc2O1 (centres unmarked) [Compound 178, 2-{3-[(dimethylamino)methyl]-2,3-dihydro-1,4-dioxa-5-aza-7-naphthylamino}-4-(3-quinolylamino)pyrimidine]"

SMILES,IC50 (IGF-1R [1]) [nM],IC50 (IGF-1R [2]) [nM]
"COc1cc(Nc2nccc(Nc3cnc4ccc(Cl)cc4c3)n2)ccc1O[C@H]1C[C@H](N(C)C)C1 [Compound 195, 4-(6-chloro-3-quinolylamino)-2-{3-methoxy-4-[(1r,3r)-3-(dimethylamino)cyclobutoxy]phenylamino}pyrimidine]",≤ 500,≤ 500
"COc1cc(Nc2nccc(Nc3cnc4ccccc4c3)n2)ccc1O[C@H]1C[C@@H](N2CCOCC2)C1 [Compound 21, 2-{3-methoxy-4-[(1s,3s)-3-morpholinocyclobutoxy]phenylamino}-4-(3-quinolylamino)pyrimidine]",≤ 500,≤ 500
"COc1cc(Nc2nccc(Nc3cnc4ccc(C(F)F)cc4c3)n2)ccc1O[C@H]1C[C@H](N(C)C)C1 [Compound 162, 4-[6-(difluoromethyl)-3-quinolylamino]-2-{3-methoxy-4-[(1r,3r)-3-(dimethylamino)cyclobutoxy]phenylamino}pyrimidine]",500 to 2000,≤ 500
